Laboratory results as given in PMC5428567, “Pentameric ligand-gated ion channels exhibit distinct transmembrane domain archetypes for folding/expression and function” (Scientific Reports, 2017).

Legend:
ELIC Q263A = target: T1, ELIC Q263A (Dickeya chrysanthemi, UniProt P0C7B7, Q263A); assay: TEVC cysteamine-induced current, ELIC Q263A; type: cell-based; details: Xenopus laevis oocytes; ±SD; n=8
T1 construct: expressed in transfected cells; host or cells: Xenopus laevis oocytes injected with cRNA
T1 sequence (P0C7B7 whole entry Q263A): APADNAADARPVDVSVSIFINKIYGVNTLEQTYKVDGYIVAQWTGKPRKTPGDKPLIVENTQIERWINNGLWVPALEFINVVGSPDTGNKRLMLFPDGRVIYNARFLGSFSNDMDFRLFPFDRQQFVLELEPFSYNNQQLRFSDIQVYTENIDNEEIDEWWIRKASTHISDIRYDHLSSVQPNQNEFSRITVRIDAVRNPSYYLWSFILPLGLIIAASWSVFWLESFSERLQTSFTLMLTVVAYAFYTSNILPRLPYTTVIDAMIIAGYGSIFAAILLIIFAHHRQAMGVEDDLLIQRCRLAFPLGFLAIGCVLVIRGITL
Source text: (§1) To examine how different physical interactions at the M4-M1/M3 interface in both GLIC and ELIC (Fig. 1) influence function, we mutated each residue to Ala, and characterized how each mutation influenced agonist-induced channel gating using two-electrode voltage clamp electrophysiology. Both GLIC and ELIC are cation-selective ion channels that transiently gate open in response to agonist binding, although GLIC responds to protons while ELIC responds to primary amines, such as cysteamine, [34].
(§2) Stage V–VI oocytes were collected as previously described, injected with cRNA, and allowed to incubate one to four days at 16 °C in ND96 + buffer (5 mM HEPES, 96 mM NaCl, 2 mM KCl, 1 mM MgCl2, 1 mM CaCl2, and 2 mM Pyruvate). Whole cell currents were recorded using a two-electrode voltage clamp apparatus (OC-725C oocyte clamp; Holliston, MA). For GLIC, whole cell currents were recorded from injected oocytes (3–20 ng cRNA) immersed in MES buffer (140 mM NaCl, 2.8 mM KCl, 2 mM MgCl2, and 10 mM MES). Currents through the plasma membrane in response to pH jumps (pH 7.3 down to the indicated pH values) were measured with the transmembrane voltage clamped at voltages between −20 mV and −40 mV depending on the level of expression, typically −20 mV. […]

ELIC L209A = target: T2, ELIC L209A (Dickeya chrysanthemi, UniProt P0C7B7, L209A); assay: TEVC cysteamine-induced current, ELIC L209A; type: cell-based; details: Xenopus laevis oocytes; ±SD; n=8
T2 construct: expressed in transfected cells; host or cells: Xenopus laevis oocytes injected with cRNA
T2 sequence (P0C7B7 whole entry L209A): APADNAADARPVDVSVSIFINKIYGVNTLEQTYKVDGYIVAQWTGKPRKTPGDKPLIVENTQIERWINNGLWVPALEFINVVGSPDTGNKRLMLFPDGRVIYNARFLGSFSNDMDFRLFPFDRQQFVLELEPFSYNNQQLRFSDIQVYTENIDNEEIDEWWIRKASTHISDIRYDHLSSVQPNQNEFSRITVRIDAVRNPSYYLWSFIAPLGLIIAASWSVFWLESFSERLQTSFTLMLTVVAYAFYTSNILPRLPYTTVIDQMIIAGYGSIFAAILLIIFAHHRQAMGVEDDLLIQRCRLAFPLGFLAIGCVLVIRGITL
Source text: as §1, §2

ELIC W223A = target: T3, ELIC W223A (Dickeya chrysanthemi, UniProt P0C7B7, W223A); assay: TEVC cysteamine-induced current, ELIC W223A; type: cell-based; details: Xenopus laevis oocytes; ±SD; n=8
T3 construct: expressed in transfected cells; host or cells: Xenopus laevis oocytes injected with cRNA
T3 sequence (P0C7B7 whole entry W223A): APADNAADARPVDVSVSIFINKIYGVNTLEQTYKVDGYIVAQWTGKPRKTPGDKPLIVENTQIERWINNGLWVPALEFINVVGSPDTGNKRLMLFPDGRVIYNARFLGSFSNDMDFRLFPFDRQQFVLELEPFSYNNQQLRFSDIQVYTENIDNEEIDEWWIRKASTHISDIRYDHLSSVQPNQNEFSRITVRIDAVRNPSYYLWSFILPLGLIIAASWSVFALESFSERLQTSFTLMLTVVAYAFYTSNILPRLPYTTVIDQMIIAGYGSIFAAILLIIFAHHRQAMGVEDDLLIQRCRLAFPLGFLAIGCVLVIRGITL
Source text: as §1, §2

ELIC L314A = tested on: ELIC L314A; design: method as in Henault et al.[9], [18], [29]; details: Xenopus laevis oocytes; ±SD; n=8; ref Henault et al.[9], [18], [29]; cited from earlier work
ELIC C299A = tested on: ELIC C299A; design: method as in Henault et al.[9], [18], [29]; details: Xenopus laevis oocytes; ±SD; n=9; ref Henault et al.[9], [18], [29]; cited from earlier work
ELIC F222A = target: T4, ELIC F222A (Dickeya chrysanthemi, UniProt P0C7B7, F222A); assay: TEVC cysteamine-induced current, ELIC F222A; type: cell-based; details: Xenopus laevis oocytes
T4 construct: expressed in transfected cells; host or cells: Xenopus laevis oocytes injected with cRNA
T4 sequence (P0C7B7 whole entry F222A): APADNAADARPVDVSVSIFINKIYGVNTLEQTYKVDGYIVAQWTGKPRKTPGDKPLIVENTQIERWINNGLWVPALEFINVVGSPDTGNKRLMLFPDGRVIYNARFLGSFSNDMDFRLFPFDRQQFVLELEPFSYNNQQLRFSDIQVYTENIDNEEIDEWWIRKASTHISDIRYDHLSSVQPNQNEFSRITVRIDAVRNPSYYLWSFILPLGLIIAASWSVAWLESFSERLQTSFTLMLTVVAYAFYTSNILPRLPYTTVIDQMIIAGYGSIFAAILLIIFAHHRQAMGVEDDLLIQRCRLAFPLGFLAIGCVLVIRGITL
Source text: as §1
Stage V–VI oocytes were collected as previously described, injected with cRNA, and allowed to incubate one to four days at 16 °C in ND96 + buffer (5 mM HEPES, 96 mM NaCl, 2 mM KCl, 1 mM MgCl2, 1 mM CaCl2, and 2 mM Pyruvate). Whole cell currents were recorded using a two-electrode voltage clamp apparatus (OC-725C oocyte clamp; Holliston, MA). For GLIC, whole cell currents were recorded from injected oocytes (3–20 ng cRNA) immersed in MES buffer (140 mM NaCl, 2.8 mM KCl, 2 mM MgCl2, and 10 mM MES). Currents through the plasma membrane in response to pH jumps (pH 7.3 down to the indicated pH values) were measured with the transmembrane voltage clamped at voltages between −20 mV and −40 mV depending on the level of expression, typically −20 mV. For ELIC, whole cell currents were recorded from injected oocytes (0.1–10 ng cRNA) immersed in HEPES buffer (150 mM NaCl, 0.5 mM BaCl2, and 10 mM HEPES, pH 7.0). In most cases, currents through the plasma membrane in response to cysteamine concentration jumps (from 0 mM up to the indicated values) were measured with the transmembrane voltage clamped at −30 mV.
Dose responses for each mutant were acquired from at least two different batches of oocytes. Each individual dose-response experiment was fit with a variable slope sigmoidal dose-response and the individual EC50 values from each experiment averaged to give the reported EC50 values ± standard deviation.

ELIC V260A = target: T5, ELIC V260A (Dickeya chrysanthemi, UniProt P0C7B7, V260A); assay: TEVC cysteamine-induced current, ELIC V260A; type: cell-based; details: Xenopus laevis oocytes; ±SD; n=8
T5 construct: expressed in transfected cells; host or cells: Xenopus laevis oocytes injected with cRNA
T5 sequence (P0C7B7 whole entry V260A): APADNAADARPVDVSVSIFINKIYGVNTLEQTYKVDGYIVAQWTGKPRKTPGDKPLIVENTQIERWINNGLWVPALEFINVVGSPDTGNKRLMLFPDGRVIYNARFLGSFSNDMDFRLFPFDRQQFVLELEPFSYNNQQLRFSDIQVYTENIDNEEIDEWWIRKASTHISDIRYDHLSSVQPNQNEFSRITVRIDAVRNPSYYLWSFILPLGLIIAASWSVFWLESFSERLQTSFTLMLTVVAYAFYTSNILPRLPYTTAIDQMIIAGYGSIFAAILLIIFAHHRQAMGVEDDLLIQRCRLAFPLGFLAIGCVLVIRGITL
Source text: as §1, §2

ELIC F281A = target: T6, ELIC F281A (Dickeya chrysanthemi, UniProt P0C7B7, F281A); assay: TEVC cysteamine-induced current, ELIC F281A; type: cell-based; details: Xenopus laevis oocytes; ±SD; n=8
T6 construct: expressed in transfected cells; host or cells: Xenopus laevis oocytes injected with cRNA
T6 sequence (P0C7B7 whole entry F281A): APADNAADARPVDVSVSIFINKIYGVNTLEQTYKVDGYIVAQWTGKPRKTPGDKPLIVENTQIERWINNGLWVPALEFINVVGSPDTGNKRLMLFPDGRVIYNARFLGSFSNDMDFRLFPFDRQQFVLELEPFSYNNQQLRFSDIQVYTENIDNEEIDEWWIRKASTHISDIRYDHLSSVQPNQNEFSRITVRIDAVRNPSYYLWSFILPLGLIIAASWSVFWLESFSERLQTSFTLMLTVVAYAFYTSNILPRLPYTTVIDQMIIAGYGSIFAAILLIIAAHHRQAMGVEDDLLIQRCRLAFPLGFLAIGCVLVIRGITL
Source text: as §1, §2

ELIC I208A = target: T7, ELIC I208A (Dickeya chrysanthemi, UniProt P0C7B7, I208A); assay: TEVC cysteamine-induced current, ELIC I208A; type: cell-based; details: Xenopus laevis oocytes; ±SD; n=8
T7 construct: expressed in transfected cells; host or cells: Xenopus laevis oocytes injected with cRNA
T7 sequence (P0C7B7 whole entry I208A): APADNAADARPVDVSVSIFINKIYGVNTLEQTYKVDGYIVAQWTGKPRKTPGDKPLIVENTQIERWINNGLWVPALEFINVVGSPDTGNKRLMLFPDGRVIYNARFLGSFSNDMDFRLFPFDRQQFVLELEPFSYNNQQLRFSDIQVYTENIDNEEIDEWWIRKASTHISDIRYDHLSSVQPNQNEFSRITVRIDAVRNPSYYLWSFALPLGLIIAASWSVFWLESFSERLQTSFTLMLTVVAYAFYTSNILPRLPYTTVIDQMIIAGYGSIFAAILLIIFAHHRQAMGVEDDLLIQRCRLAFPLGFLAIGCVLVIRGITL
Source text: as §1, §2

ELIC W223A + R300A = target: T8, ELIC W223A + R300A (Dickeya chrysanthemi, UniProt P0C7B7, R300A/W223A); assay: TEVC cysteamine-induced current, ELIC W223A + R300A; type: cell-based; details: Xenopus laevis oocytes; ±SD; n=8
T8 construct: expressed in transfected cells; host or cells: Xenopus laevis oocytes injected with cRNA (pTLN plasmid)
T8 sequence (P0C7B7 whole entry W223A/R300A): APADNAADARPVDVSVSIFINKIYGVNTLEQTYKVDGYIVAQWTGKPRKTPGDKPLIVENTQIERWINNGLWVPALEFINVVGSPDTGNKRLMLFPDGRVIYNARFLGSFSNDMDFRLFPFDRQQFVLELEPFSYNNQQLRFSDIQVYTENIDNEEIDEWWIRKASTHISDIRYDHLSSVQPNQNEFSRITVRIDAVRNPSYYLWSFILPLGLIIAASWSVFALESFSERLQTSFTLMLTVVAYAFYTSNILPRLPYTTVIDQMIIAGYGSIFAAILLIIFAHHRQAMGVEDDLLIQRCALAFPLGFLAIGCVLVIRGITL
Source text: as §1, §2

ELIC G270A = target: T9, ELIC G270A (Dickeya chrysanthemi, UniProt P0C7B7, G270A); assay: TEVC cysteamine-induced current, ELIC G270A; type: cell-based; details: Xenopus laevis oocytes; ±SD; n=8
T9 construct: expressed in transfected cells; host or cells: Xenopus laevis oocytes injected with cRNA (pTLN plasmid)
T9 sequence (P0C7B7 whole entry G270A): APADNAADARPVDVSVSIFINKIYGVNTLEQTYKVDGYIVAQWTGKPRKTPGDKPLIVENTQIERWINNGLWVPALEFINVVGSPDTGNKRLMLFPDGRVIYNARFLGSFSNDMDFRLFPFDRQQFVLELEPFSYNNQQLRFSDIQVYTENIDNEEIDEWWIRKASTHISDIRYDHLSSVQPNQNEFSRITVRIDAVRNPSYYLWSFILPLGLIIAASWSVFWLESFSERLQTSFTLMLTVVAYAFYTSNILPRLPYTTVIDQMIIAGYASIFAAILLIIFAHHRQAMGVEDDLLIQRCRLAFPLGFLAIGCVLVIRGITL
Source text: as §1, §2

ELIC L278A = target: T10, ELIC L278A (Dickeya chrysanthemi, UniProt P0C7B7, L278A); assay: TEVC cysteamine-induced current, ELIC L278A; type: cell-based; details: Xenopus laevis oocytes; ±SD; n=8
T10 construct: expressed in transfected cells; host or cells: Xenopus laevis oocytes injected with cRNA (pTLN plasmid)
T10 sequence (P0C7B7 whole entry L278A): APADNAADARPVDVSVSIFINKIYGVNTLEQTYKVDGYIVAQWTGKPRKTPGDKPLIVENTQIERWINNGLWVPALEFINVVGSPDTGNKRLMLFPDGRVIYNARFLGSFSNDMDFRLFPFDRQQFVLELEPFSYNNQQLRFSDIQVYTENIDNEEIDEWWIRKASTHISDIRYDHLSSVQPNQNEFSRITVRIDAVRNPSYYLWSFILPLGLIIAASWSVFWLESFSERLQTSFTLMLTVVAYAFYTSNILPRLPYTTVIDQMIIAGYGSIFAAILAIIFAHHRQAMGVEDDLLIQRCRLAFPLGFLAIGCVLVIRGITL
Source text: as §1, §2

ELIC M264A = target: T11, ELIC M264A (Dickeya chrysanthemi, UniProt P0C7B7, M264A); assay: TEVC cysteamine-induced current, ELIC M264A; type: cell-based; details: Xenopus laevis oocytes; ±SD; n=8
T11 construct: expressed in transfected cells; host or cells: Xenopus laevis oocytes injected with cRNA
T11 sequence (P0C7B7 whole entry M264A): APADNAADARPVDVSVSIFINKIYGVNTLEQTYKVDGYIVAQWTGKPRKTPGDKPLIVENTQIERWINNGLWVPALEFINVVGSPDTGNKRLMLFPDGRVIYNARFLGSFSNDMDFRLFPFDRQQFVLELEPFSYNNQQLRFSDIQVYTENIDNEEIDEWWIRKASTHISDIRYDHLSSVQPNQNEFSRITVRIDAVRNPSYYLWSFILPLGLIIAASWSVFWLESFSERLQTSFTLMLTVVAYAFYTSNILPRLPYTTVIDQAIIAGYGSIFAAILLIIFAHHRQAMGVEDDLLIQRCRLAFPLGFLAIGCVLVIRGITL
Source text: as §1, §2

ELIC R300A = tested on: ELIC R300A; design: method as in Henault et al.[9], [18], [29]; details: Xenopus laevis oocytes; ±SD; n=11; ref Henault et al.[9], [18], [29]; cited from earlier work
ELIC G311A = tested on: ELIC G311A; design: method as in Henault et al.[9], [18], [29]; details: Xenopus laevis oocytes; ±SD; n=11; ref Henault et al.[9], [18], [29]; cited from earlier work
ELIC S271A = target: T12, ELIC S271A (Dickeya chrysanthemi, UniProt P0C7B7, S271A); assay: TEVC cysteamine-induced current, ELIC S271A; type: cell-based; details: Xenopus laevis oocytes; ±SD; n=8
T12 construct: expressed in transfected cells; host or cells: Xenopus laevis oocytes injected with cRNA
T12 sequence (P0C7B7 whole entry S271A): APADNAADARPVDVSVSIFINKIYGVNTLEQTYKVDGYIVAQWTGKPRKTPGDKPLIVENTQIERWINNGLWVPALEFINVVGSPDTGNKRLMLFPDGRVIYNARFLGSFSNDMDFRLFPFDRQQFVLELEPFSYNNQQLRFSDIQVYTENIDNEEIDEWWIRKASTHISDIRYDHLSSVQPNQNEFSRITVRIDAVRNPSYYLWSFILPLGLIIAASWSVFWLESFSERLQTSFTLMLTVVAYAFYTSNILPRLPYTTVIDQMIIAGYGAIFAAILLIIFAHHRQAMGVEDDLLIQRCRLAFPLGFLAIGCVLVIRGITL
Source text: as §1, §2

ELIC V315A = tested on: ELIC V315A; design: method as in Henault et al.[9], [18], [29]; details: Xenopus laevis oocytes; ±SD; n=9; ref Henault et al.[9], [18], [29]; cited from earlier work

Compound: NCCS [cysteamine]
- EC50 (ELIC Q263A): 580 ± 40 µM
- −logEC50 (ELIC Q263A): 3.24 ± 0.03
- EC50 (ELIC L209A): 290 ± 50 µM
- −logEC50 (ELIC L209A): 3.54 ± 0.08
- EC50 (ELIC W223A): 1230 ± 60 µM
- −logEC50 (ELIC W223A): 2.91 ± 0.02
- EC50 (ELIC L314A): 420 ± 50 µM
- −logEC50 (ELIC L314A): 3.38 ± 0.05
- EC50 (ELIC C299A): 560 ± 80 µM
- −logEC50 (ELIC C299A): 3.25 ± 0.06
- gain-of-function relative to WT ELIC (ELIC F222A; shift versus WT): 10 fold
- EC50 (ELIC F222A; ±SD, n=8): 90 ± 30 µM
- −logEC50 (ELIC F222A; ±SD, n=8): 4.05 ± 0.15
- EC50 (ELIC V260A): 460 ± 50 µM
- −logEC50 (ELIC V260A): 3.34 ± 0.05
- EC50 (ELIC F281A): 880 ± 50 µM
- −logEC50 (ELIC F281A): 3.06 ± 0.02
- EC50 (ELIC I208A): 250 ± 50 µM
- −logEC50 (ELIC I208A): 3.60 ± 0.09
- EC50 (ELIC W223A + R300A): 800 ± 110 µM
- −logEC50 (ELIC W223A + R300A): 3.10 ± 0.05
- EC50 (ELIC G270A): 1020 ± 100 µM
- −logEC50 (ELIC G270A): 2.99 ± 0.04
- EC50 (ELIC L278A): 1070 ± 100 µM
- −logEC50 (ELIC L278A): 2.97 ± 0.04
- EC50 (ELIC M264A): 1290 ± 120 µM
- −logEC50 (ELIC M264A): 2.89 ± 0.04
- EC50 (ELIC R300A): 400 ± 50 µM
- −logEC50 (ELIC R300A): 3.40 ± 0.05
- EC50 (ELIC G311A): 510 ± 100 µM
- −logEC50 (ELIC G311A): 3.29 ± 0.09
- EC50 (ELIC S271A): 820 ± 50 µM
- −logEC50 (ELIC S271A): 3.09 ± 0.03
- EC50 (ELIC V315A): 600 ± 80 µM
- −logEC50 (ELIC V315A): 3.22 ± 0.06
